According to ChEMBL document CHEMBL4052728, “Diaminopimelic acid (DAP) analogs bearing isoxazoline moiety as selective inhibitors against meso-diaminopimelate dehydrogenase (m-Ddh) from Porphyromonas gingivalis” (Bioorg Med Chem Lett, 2017):
In brackets after ≈: the same amount, converted by molar mass. Activity calls are given as the source filed them. The rule behind the calls is not given here.

Legend:
[1] = molecular target: T1, Meso-diaminopimelate D-dehydrogenase (Porphyromonas gingivalis (strain ATCC BAA-308 / W83)) (UniProt Q7MW40); test: Inhibition of Porphyromonas gingivalis m-Ddh expressed in Escherichia coli BL21 (DE3) pLysS up to 1 mM at pH 7.8 using meso-diaminopimelate as substrate by spectrophotometric method
T1 sequence (whole entry): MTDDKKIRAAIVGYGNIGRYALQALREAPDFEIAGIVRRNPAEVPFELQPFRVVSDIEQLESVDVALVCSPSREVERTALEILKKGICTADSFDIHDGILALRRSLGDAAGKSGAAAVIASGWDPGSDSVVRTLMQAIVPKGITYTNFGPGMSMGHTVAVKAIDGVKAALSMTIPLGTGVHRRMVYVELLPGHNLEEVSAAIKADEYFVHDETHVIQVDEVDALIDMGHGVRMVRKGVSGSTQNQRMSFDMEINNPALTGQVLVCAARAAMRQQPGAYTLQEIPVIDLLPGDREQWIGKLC

[2] = molecular target: T1, Meso-diaminopimelate D-dehydrogenase (Porphyromonas gingivalis (strain ATCC BAA-308 / W83)); test: Inhibition of Porphyromonas gingivalis m-Ddh expressed in Escherichia coli BL21 (DE3) pLysS up to 3 mM at pH 10.5 using meso-diaminopimelate as substrate by spectrophotometric method
[3] = molecular target: T2, Meso-diaminopimelate D-dehydrogenase (Porphyromonas gingivalis (strain ATCC BAA-308 / W83), UniProt Q7MW40); test: Inhibition of Porphyromonas gingivalis m-Ddh expressed in Escherichia coli BL21 (DE3) pLysS at pH 10.5 using meso-diaminopimelate as substrate by spectrophotometric method
T2 sequence (Q7MW40 whole entry): T1 sequence (whole entry)

Fusobacterium nucleatum = test: Growth inhibition of Fusobacterium nucleatum ATCC 25586 up to 3 mM after 24 hrs by broth microdilution method
Staphylococcus aureus = test: Growth inhibition of Staphylococcus aureus N315 up to 3 mM after 24 hrs by broth microdilution method
[4] = molecular target: T2, Meso-diaminopimelate D-dehydrogenase; test: Inhibition of Porphyromonas gingivalis m-Ddh expressed in Escherichia coli BL21 (DE3) pLysS at pH 7.8 using meso-diaminopimelate as substrate by spectrophotometric method
Porphyromonas gingivalis [5] = test: Antibacterial activity against Porphyromonas gingivalis ATCC 33277 after 24 hrs by broth microdilution method; type: functional; settings: ATCC 33277, 24 h
Porphyromonas gingivalis [6] = test: Antibacterial activity against Porphyromonas gingivalis W83 after 24 hrs by broth microdilution method; type: functional; settings: W83, 24 h

SMILES	inhibition [1]	inhibition [2]	IC50 [3] [µM]	growth inhibition (GI) (Fusobacterium nucleatum)	growth inhibition (GI) (Staphylococcus aureus)	IC50 [4] [µM]	MIC (Porphyromonas gingivalis [5]) [µM]	MIC (Porphyromonas gingivalis [6]) [µM]
N[C@@H](C[C@@H]1CC(C(=O)O)=NO1)C(=O)O	inactive	inactive						
N[C@@H](C[C@H]1CC(C(=O)O)=NO1)C(=O)O			211	Non-Toxic	Non-Toxic	14.9	1880 (≈ 379 µg/mL)	773 (≈ 156 µg/mL)
